Measured values taken from patent US20100239562A1, “Kv CHANNELS IN NEURODEGENERATION AND NEUROPROTECTION” (priority 2006, published 2010).
Where a SMILES comes first, the peptide text is derived from it. The star is where a group is joined. Cbz = O=C(OCc1ccccc1)*; CH2F = FC*

Tests used:
[1] = system: human fetal neurons; experiment: Trypan blue uptake neurotoxicity assay in GrB-treated neuronal cultures; format: cell-based
Experimental: (§1) FIG. 8A-8B Protection against Granzyme B neurotoxicity by Kv1.3 inhibitors. Human fetal neuronal cultures were treated with GB (4 nM) in the presence or absence of various K channel blockers. (FIG. 8A) Cell viability was determined by staining with CYTOQUANT™ blue and the staining was quantitated by a plate reader. […] (FIG. 8B) Cell viability was determined by staining with trypan blue and the % of cells staining were counted which represent dead cells. A minimum of 500 cells was counted in each well and each treatment was done in triplicate.
Human fetal neurons were cultured as previously described (35). Briefly, human fetal brain specimens of 12-17 weeks gestation were obtained in accordance with NIH guidelines. The tissues were then triturated after removing the meninges. Cells were then cultured in T75 flasks in opti-MEM with 5% FBS, 0.5% N2 supplement and 1% antibiotics. Neurons were collected by carefully shaking the flask at least 1 month later. Cells were then seeded at 1×10^5/ml in 96 well plates for 1 week before treatment. These cultures contain 70-80% neurons, <5% microglia and the remaining cells are astrocytes as determined by immunostaining for microtubule associated antigen (MAP-2), CD68 and glial fibrillary acidic protein (GFAP) respectively.
For trypan blue uptake, neuronal cells were seeded at 1×10^5/ml and incubated for 1 week in 96-well plates before treatment. […] The cells were then stained with trypan blue for 5 min, washed with phosphate buffered saline, pH7.4 (PBS) and fixed with 4% paraformaldehyde. Trypan blue positive and negative cells were counted in three pre-determined fields. Approximately 200 cells were counted in each well. Each experiment was done in triplicate wells and mean and SEM were calculated from at least three independent experiments.

[2] = system: Human fetal neuronal cultures; experiment: CYTOQUANT blue cell viability, GB-treated neuronal cultures with K channel blockers; format: cell-based; conditions: GB 4 nM; CYTOQUANT blue staining, plate reader
Experimental: as §1

[3] = system: Neuronal precursor cells (NPC); experiment: Caspase-3 activation in GrB-treated NPC cultures (Western-blot); format: cell-based; conditions: for effect on GB-induced caspase-3 activation: GrB 4 nM 24 hours, pretreatment PTX 100 ng/ml, ROCK-I 10 nM or MgTX 10 nM
[4] = system: Neuronal precursor cells (NPC); experiment: Neuronal differentiation of NPC (βIII-tubulin / GFAP immunostaining); format: cell-based; conditions: MgTX 10 nM for 7 days in differentiating media
Experimental: FIG. 11. Kv1.3 specific blocker enhanced neuronal differentiation in NPC. NPC cultures were treated with (FIGS. 11D-11F) or without (FIGS. 11A-11C) Kv1.3 specific blocker MgTX (10 nM) for 7 days in differentiating media. The cells were then fixed in 4% paraformaldehyde and immunostained with mAb against neuron specific βIII-tubulin (FIGS. 11A, 11D) and polyclonal Ab against astrocyte specific GFAP (FIGS. 11B, 11E), followed by fluorescence-conjugated second Abs. The cells were observed and images were taken under confocal microscopy. […] FIGS. 11C and 11F show the merged images.

[5] = biological target: Kv1.3 channel (voltage-gated potassium channel) on human fetal neurons / neuronal precursor cells (human); experiment: cell-based or functional assay
[6] = system: Kv1.3; experiment: Kv1.3 immunostaining in GB-treated neurons; format: cell-based, human; conditions: GB 4 nM, 16 hours
Experimental: FIG. 7A-7H. Expression of Kv1.3 on neurons and toxicity by Granzyme B. Human fetal neuronal cultures were treated with GB (4 nM; FIGS. 7E-7H) or control with no GB (FIGS. 7A-7D) and immunostained with antisera to beta-tubulin (red; FIGS. 7A and 7E) Kv1.3 (green; FIGS. 7C and 7G) and Hoechst (blue; FIGS. 7B and 7F), 16 hours following treatment. […] FIGS. 7D and 7H show merged images with immunostaining with both antisera and Hoechst.
Expression of voltage gated channel, Kv1.3, in neurons. We discovered that that similar to T cells small basal levels of Kv1.3 channel were expressed on neurons. […] Similar increases in Kv1.3 immunostaining in neurons were also noted upon treatment with supernatants from activated T cells (FIG. 7A-7H).

[7] = system: Human fetal neuron cultures; experiment: GrB neurotoxicity by caspase-3 activation and nuclear fragmentation; format: cell-based; conditions: recombinant GrB 0.5 to 4 nM
Experimental: Human fetal neuron cultures on cover slips were treated with GrB (1 nM) for 24 h. Caspase-3 and βIII tubulin expression in neurons was determined by immunocytochemistry. Briefly, cells were fixed with 4% paraformaldehyde for 5 min, and then blocked with 3% FBS in PBS for 20 min. Polyclonal caspase-3 antiserum (1:500) and monoclonal anti-BIII tubulin (1 μg/ml; Promega, Madison. WI) antibody were then applied and cover slips incubated overnight at 4° C. After washing with PBS, the cover slips were incubated with secondary antibodies (1:200 Donkey anti-rabbit IgG Alexa Fluor 594 and anti-mouse IgG Alexa Fluor 488, Molecular Probes, Eugene, Oreg.) for 2 h. Hochest 33258 (10 μM) was added at the last half an hour to stain the nucleus. The cells were imaged by confocal microscopy.
(§2) Recombinant GrB induces toxicity in neurons but not in astroglia. […] We next determined the effect of perform on GrB induced neurotoxicity. We used threshold toxic concentrations of perform (50 ng/ml) for these experiments. […] We next determined if the GrB mediated toxicity could also occur in astrocytes. Human astrocyte cultures were similarly treated with recombinant GrB (dose-1-4 nM) and monitored for neurotoxicity.

[8] = system: Kv1.3; experiment: Kv1.3 immunostaining in GrB-treated NPC; format: cell-based; conditions: GrB 4 nM, 24 hours
Experimental: FIG. 9A-9H. […] NPC cultures on cover slips were treated with GrB (4 nM; FIGS. 9B, 9D, 9F, and 9H) for 24 hours or controls without GrB (FIGS. 9A, 9C, 9E, and 9G). The cells were then fixed in 4% paraformaldehyde and immunostained with mAb against nestin (FIGS. 9A-9B) and polyclonal Ab against Kv1.3, followed by fluorescence-conjugated secondary Abs (FIGS. 9C-9D). Nuclei were stained with Hoechst 33342 (Calbiochem, 10 μM; FIGS. 9E-9F). The cells were imaged by confocal microscopy. As shown, more than 98% of the cells were positive for nestin and also moderately stained for Kv1.3 in the control cultures.

[9] = system: Human fetal neuronal cultures; experiment: Cyclic AMP assay in neuronal cultures; format: cell-based; conditions: GrB 1 nM, 0-30 min
Experimental: Human fetal neuronal cultures were seeded at 5×10^5/ml in 12 well plates for 1 week before treatment. Cultures were then treated with GrB (1 nM) in Locke's buffer for 0-30 min. After removing the media the cells were treated with 100 μl of 0.1 M HCl for 10 min to achieve cell lysis. The lysate was centrifuged at 600 g for 10 min and the supernatant was used directly for the cyclic AMP assay. Cyclic AMP competitive ELISA kit (ENDOGEN, Rockford, Ill.) was used according to manufacturer's directions.

[10] = system: Primary neurons; experiment: Calcium imaging (Fura-2/AM) of cytosolic calcium in neurons; format: cell-based
Experimental: FIG. 4-4B. disrupts calcium homeostasis in neurons. Primary neurons were exposed to GrB for 30 min before imaging of intracellular calcium using Fura-2AM. (FIG. 4A). Resting levels of cytosolic calcium were increased by treatment with 1.0-100 nM GrB. (FIG. 4B). SDF-1α (10 μM) evoked increases of cytosolic calcium were increased by pre-treatment of neurons with 10 nM GrB. * P<0.001.
Cytosolic calcium ([Ca^2+]c) was determined using the ratiometric calcium probe Fura-2/AM using methods similar to those previously described (36). Cells were incubated in 2 μM Fura-2/AM for 20 min at 37° C. in media and washed with Locke's Buffer (154 mM NaCl, 3.6 mM NaHCO3, 5.6 mM KCl, 1 mM MgCl2, 5 mM HEPES, 2.3 mM CaCl2, 10 mM glucose; pH 7.4) to remove extracellular Fura-2/AM. Fura-2 loaded cells were placed into a open bath chamber and maintained at 37° C. (Series 20 open perfusion chamber and TC-344B temperature controller; Warner Instruments. Hamden, Conn.). Buffer flowed over the cells at the rate of ˜2 ml/min using a VC-6 perfusion control system with a multi-input manifold that minimized dead space, allowing for a rapid change between buffer and buffer containing drug. Cells were alternatively excited at 340 and 380 nm by a monochrometer and emission was recorded at 510 with software from Intracellular Imaging (Intracellular Imaging Inc., Cincinnati, Ohio.) […] ratios were converted to nM [Ca^2+]c using curve fitting software and calcium reference standards (Molecular Probes).

[11] = system: Human astrocyte cultures; format: cell-based; conditions: recombinant GrB 1-4 nM
Experimental: Enriched human fetal astroglia were cultured as previously described. Briefly, human fetal brain specimens of 12-17 weeks gestation were triturated after removal of the meninges. Cells were then cultured in T75 flasks in DMEM with 10% FBS and 1% antibiotics for at least 1 month. After shaking at 180 rpm for 1 h, cells were separated with trypsin/EDTA. Cells were then seeded at 1×10^5/ml in 96 well plates for 1 week before treatment. >95% of these cells were immunostained for GFAP.
as §2

[12] = agent 10 μM added 1 h prior to GrB, trypan blue uptake 48 h later

O=C[C@@H](O)[C@@H](O)[C@H](O)[C@H](O)COP(=O)(O)O [Mannose-6-phosphate, D-mannose 6-phosphate]
inhibition of GrB-induced neurotoxicity ([1]; pretreated with 10 mM mannose-6-phosphate, then GrB 1 nM, trypan blue uptake, 48 h): unable to inhibit GrB-induced neurotoxicity

rTrtyustoxin: non-specific voltage gated K channel blocker (VFINAKCRGSPECLPKCKEAIGKAAGKCMNGKCKCYP)
protection against GB neurotoxicity (cell viability, optical density) [2]: protective

margatoxin (TIINVKCTSPKQCLPPCKAQFGQSAGAKCMNGKCKCYPH) [Margotoxin]
effect on GB-induced caspase-3 activation [3]: attenuated GB-induced caspase-3 activation | neuronal differentiation (βIII-tubulin positive cells and processes) [4]: increased the number of βIII-tubulin positive cells and processes per cell | concentration with significant protection against GB toxicity ([1]; GB 4 nM, trypan blue): 1 to 10 nM | protection against GB toxicity (% trypan blue stained cells) ([1]; GB 4 nM, trypan blue): protected against GB toxicity in a dose responsive manner

COC(=O)C[C@H](NC(=O)[C@H](C)NC(=O)[C@@H](NC(=O)OCc1ccccc1)C(C)C)C(=O)CF [Z-VAD-fmk] (Cbz-Val-Ala-Asp(OMe)-CH2F)
blocking of GrB-induced neurotoxicity [1, 12]: significantly (P<0.05) blocked

Cc1c(C)c2c(c(C)c1O)CCC(C)(C(=O)O)O2 (stereo not drawn) [trolox]
blocking of GrB-induced neurotoxicity [1, 12]: blocked GrB neurotoxicity

margatoxin (MgTX), Kv1.3 specific blocker (from UniProt P40755 1-39) (peptide)
protection of human fetal neurons against GB (4 nM) toxicity, trypan blue staining (% dead cells) [5]: 1 to 10 nM

dendrotoxin
protection against GB neurotoxicity (cell viability, optical density) [2]: failed to protect against GB neurotoxicity

CCC(C)(C)C(=O)C(=O)N1CCC[C@H]1C(=O)OCCCc1cccnc1 [GPI-1046, 3-(3-pyridyl)-1-propyl (2S)-1-(3,3-dimethyl-1,2-dioxopentyl)-2-pyrrollidinecarboxylate]
blocking of GrB-induced neurotoxicity [1, 12]: blocked GrB neurotoxicity

GrB: 32-kDa serine protease of lymphocyte granules; recombinant GrB used
Kv1.3 channel expression in neurons [6]: increased expression of Kv1.3 channel in a subpopulation of cells | minimum concentration needed to cause significant neurotoxicity [7]: 1 nM | caspase-3 activation in NPC ([3]; GrB 4 nM, 24 hours): induced caspase-3 activation | Kv1.3 expression in NPC [8]: significant increase in Kv1.3 expression | cAMP levels [9]: significant decreases at 5 min | SDF-1α-evoked ER calcium release, peak increase ([10]; cultures pre-treated with GrB (10 nM), SDF-1α): 1000 nM | resting [Ca2+]c ([10]; higher dose of GrB, within 30 min): four fold | resting concentration of [Ca2+]c ([10]; lowest concentration tested, 1 nM GrB, within 30 min): doubled | cell death in astrocyte cultures [11]: No evidence of cell death

MnTMPyP
blocking of GrB-induced neurotoxicity [1, 12]: significantly blocked the neurotoxicity

pertussis toxin
effect on GB-induced caspase-3 activation [3]: attenuated GB-induced caspase-3 activation | blocking of GrB-induced neurotoxicity ([1]; 10 μM pertussis toxin, added 1 h prior to GrB, trypan blue uptake, 48 h): blocked

B1: perforin: human perforin, membrane disrupting protein of lymphocyte granules (protein, UniProt P14222 22-555, looked up)
Perforin-1: PCHTAARSECKRSHKFVPGAWLAGEGVDVTSLRRSGSFPVDTQRFLRPDGTCTLCENALQEGTLQRLPLALTNWRAQGSGCQRHVTRAKVSSTEAVARDAARSIRNDWKVGLDVTPKPTSNVHVSVAGSHSQAANFAAQKTHQDQYSFSTDTVECRFYSFHVVHTPPLHPDFKRALGDLPHHFNASTQPAYLRLISNYGTHFIRAVELGGRISALTALRTCELALEGLTDNEVEDCLTVEAQVNIGIHGSISAEAKACEEKKKKHKMTASFHQTYRERHSEVVGGHHTSINDLLFGIQAGPEQYSAWVNSLPGSPGLVDYTLEPLHVLLDSQDPRREALRRALSQYLTDRARWRDCSRPCPPGRQKSPRDPCQCVCHGSAVTTQDCCPRQRGLAQLEVTFIQAWGLWGDWFTATDAYVKLFFGGQELRTSTVWDNNNPIWSVRLDFGDVLLATGGPLRLQVWDQDSGRDDDLLGTCDQAPKSGSHEVRCNLNHGHLKFRYHARCLPHLGGGTCLDYVPQMLLGEPPGNRSGAVW
enhancement of GrB neurotoxicity ([1]; perforin 50 ng/ml combined with GrB 1 nM): enhancement was not statistically significant
